{"source": "paper PMC11891622", "about": "(Angewandte Chemie (International Ed. in English), 2025)", "key": {"[1]": {"test_system": "SARS-CoV-2 Nucleocapsid protein NTR (1–248) (NTD plus two flanking IDRs)", "type": "binding", "conditions": "for peaks of poly-L region (216–225): 0.25 equiv. of the chimaera"}, "[2]": {"target": "SARS-CoV-2 Nucleocapsid protein N-terminal globular domain NTD (44–180) (Severe acute respiratory syndrome coronavirus 2, UniProt P0DTC9)", "type": "binding"}}, "note": "Entries after “also recorded” stand apart in the source; their conditions may differ. Where two headings read alike, the source gives them in different places."}
{"substance": "Ac‐Glu‐Gly‐Glu‐Gly‐Glu‐Gly‐Gly‐Glu‐gggg‐Glu‐Gly‐Gly‐Glu‐Gly‐Glu‐(β‐Ala)‐Glu [P-PNA]", "values": [{"measurement": "peaks of poly-L region (216–225)", "setting": "[1]; 70 µM NTR1-248, pH 6.5, 298 K, listed as P‐PNA", "result": "several cross peaks disappearing at only 0.25 equiv. of ligand added"}, {"measurement": "peaks of poly-L region (216–225)", "setting": "[1]; 70 µM NTR1-248, pH 6.5, 298 K, listed as chimaera", "result": "disappeared immediately after the addition of only 0.25 equiv. of the chimaera"}, {"measurement": "major CSPs on the NTD (44–180) region within NTR (1–248)", "setting": "[1]; CSP at 1 equiv. P-PNA, 70 µM NTR1-248, pH 6.5, 298 K", "result": "identified once again in the basic finger of NTD (44–180)"}, {"measurement": "similarity of affected regions to those with RNA fragments", "setting": "[1]; NTR (1–248), comparison with ref [22], [24]", "result": "the regions that are most affected by the interaction are similar to those identified when studying the interaction of NTR (1–248) with RNA fragments"}, {"measurement": "most perturbed residues, IDR2 (181–248) SR-rich region (177–203)", "setting": "[1]; pH 6.5", "result": "the SR‐rich region, which shows the highest CSP values; also recorded: The most perturbed residues are found in the SR‐rich region (177–203"}, {"measurement": "intensity of NTD (44–180) peaks within NTR (1–248)", "setting": "[1]; upon addition of the chimaera, 70 µM NTR1-248, pH 6.5, 298 K", "result": "several peaks of NTD (44–180) decrease in intensity or disappear completely"}, {"measurement": "CSP magnitude, chimaera versus peptide P", "setting": "[2]", "result": "CSP for the same residues are more pronounced in the case of the chimaera adduct; also recorded: chemical shift perturbation values are clearly higher for the chimeric molecule"}, {"measurement": "affinity compared with gRNA fragments / oligonucleotides", "setting": "[2]", "result": "despite larger, is not significantly distant from those reported in the literature for studies conducted with gRNA fragments; also recorded: lower than that of some oligonucleotides of similar length"}, {"measurement": "affinity compared with the peptide / chimaera counterpart", "setting": "[2]", "result": "superior affinity over the pure peptide precursor; also recorded: higher affinity for an RNA‐binding protein, such as the nucleocapsid protein of SARS‐CoV‐2, compared to a pure designed peptide"}, {"measurement": "CSP pattern: location of most affected residues", "setting": "[2]; pH 6.5", "result": "predominantly cluster within three main regions, as reported in Figure 2B and 2C, very similar to those identified when interacting with RNA"}, {"measurement": "exchange regime on the NMR time scale", "setting": "[2]; pH 6.5", "result": "an interaction taking place in a fast exchange regime on the NMR time scale"}]}
